Columns and labels:
[1] = refractive index (Na D-line) (dimensionless); xn = mol fraction of the nth substance listed; settings: 101 kPa, Liquid, Standard Abbe refractometry
[2] = xn = mol fraction of the nth substance listed; settings: 101 kPa, Liquid; for speed of sound: Sing-around technique in a fixed-path interferometer

CCC(C)=O [butanone] + C1CCCCC1
Settings	mass density, 293.15 K [kg/m3]	mass density, 298.15 K [kg/m3]	mass density, 303.15 K [kg/m3]	refractive index, 293.15 K	refractive index, 298.15 K	refractive index, 303.15 K	speed of sound, 293.15 K [m/s]	speed of sound, 298.15 K [m/s]	speed of sound, 303.15 K [m/s]
[1], x2 = 0	–	–	–	1.37879	1.37618	1.37355	–	–	–
[1], x2 = 0.0472	–	–	–	1.38079	1.37811	1.3754	–	–	–
[1], x2 = 0.0979	–	–	–	1.3829	1.38016	1.37748	–	–	–
[1], x2 = 0.1986	–	–	–	1.38711	1.38436	1.38159	–	–	–
[1], x2 = 0.2973	–	–	–	1.39144	1.38857	1.38588	–	–	–
[1], x2 = 0.3975	–	–	–	1.39592	1.3929	1.39029	–	–	–
[1], x2 = 0.497	–	–	–	1.40055	1.39774	1.39494	–	–	–
[1], x2 = 0.6045	–	–	–	1.40575	1.4026	1.40014	–	–	–
[1], x2 = 0.6922	–	–	–	1.41006	1.40723	1.40443	–	–	–
[1], x2 = 0.7984	–	–	–	1.4153	1.4125	1.4097	–	–	–
[1], x2 = 0.8978	–	–	–	1.42041	1.41769	1.41473	–	–	–
[1], x2 = 0.9476	–	–	–	1.42316	1.42035	1.41746	–	–	–
[2], x2 = 0	805.6	799.7	794.9	–	–	–	1212	1192	1163
[2], x2 = 0.0472	802.6	796.4	791.5	–	–	–	1212	1190	1159
[2], x2 = 0.0979	799.8	793.7	788.8	–	–	–	1213	1190	1159
[2], x2 = 0.1986	794.7	788.8	784	–	–	–	1212	1190	1158
[2], x2 = 0.2973	790.3	784.8	779.9	–	–	–	1212	1190	1158
[2], x2 = 0.3975	786.6	781.4	776.4	–	–	–	1216	1192	1161
[2], x2 = 0.497	783.7	778.4	773.5	–	–	–	1221	1198	1166
[2], x2 = 0.6045	781	776.1	771.1	–	–	–	1229	1204	1172
[2], x2 = 0.6922	779.5	774.6	769.6	–	–	–	1236	1212	1179
[2], x2 = 0.7984	778.2	773.4	768.5	–	–	–	1248	1222	1188
[2], x2 = 0.8978	777.8	773.1	768.2	–	–	–	1261	1236	1200
[2], x2 = 0.9476	778	773.2	768.5	–	–	–	1269	1244	1207
